Source: US8173645B2 (Takeda San Diego, Inc., priority 2007, dated 2012)

Target: T1, glucokinase (GK), residues 12-465 of the human enzyme (Homo sapiens, UniProt P35557)
T1 construct: I.D. No. 1 corresponds to residues 12-465 of glucokinase; made in house; host or cells: E. coli DH10b-Tlr
T1 sequence (P35557 with tags, fused parts or gaps isoform P35557-2): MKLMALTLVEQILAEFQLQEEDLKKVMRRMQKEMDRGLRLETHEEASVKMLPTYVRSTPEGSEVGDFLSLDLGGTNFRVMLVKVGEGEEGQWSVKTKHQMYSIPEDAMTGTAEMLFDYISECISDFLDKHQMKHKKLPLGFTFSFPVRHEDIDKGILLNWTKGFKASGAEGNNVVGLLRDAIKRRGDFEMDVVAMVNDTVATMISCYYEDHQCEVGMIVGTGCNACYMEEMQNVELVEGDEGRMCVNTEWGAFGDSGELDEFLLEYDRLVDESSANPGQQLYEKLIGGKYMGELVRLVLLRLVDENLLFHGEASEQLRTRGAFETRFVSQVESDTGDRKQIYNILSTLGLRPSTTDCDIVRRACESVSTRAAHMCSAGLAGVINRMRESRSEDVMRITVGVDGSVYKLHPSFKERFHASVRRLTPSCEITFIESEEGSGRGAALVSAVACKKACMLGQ
Test: Enzymatic glucokinase activity assay (KinaseGlo luminescence, ATP consumption)
Format: biochemical
Conditions: 5 μM ATP, 5 mM Glucose; for EC50: GK activation, Kact = concentration giving 50% of the maximal increase in GK activity, read-out: pKact; for Emax: calculated maximal gain in GK enzyme activity at a saturating concentration of the compound, read-out: % ACTmax
In short: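 Activation measured as ATP consumption: residual ATP detected by KinaseGlo luminescence after 60 min at room temperature with 5 μM ATP and 5 mM glucose (Hepes pH 7.2, MgCl2, Brij35, DTT, 2% DMSO). Enzyme was recombinant FLAG-tagged protein from E. coli. Eleven-point twofold series were fitted nonlinearly for pKact and % ACTmax.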

Compound | EC50 [nM] | Emax [%]
O=C(Nc1nccs1)[C@H](CC1CCCCC1)N1CCN(S(=O)(=O)c2cc(Cl)ccc2F)CC1=O [Example 185, (S)-2-(4-(5-chloro-2-fluorophenylsulfonyl)-2-oxopiperazin-1-yl)-3-cyclohexyl-N-(thiazol-2-yl)propanamide] | ≤ 631 | ≥ 119
COc1ccc2nc(NC(=O)C(CC3CCOCC3)N3CCN(S(=O)(=O)C4CC4)CC3=O)sc2n1 (centres unmarked) [Example 26, 2-(4-(cyclopropylsulfonyl)-2-oxopiperazin-1-yl)-N-(5-methoxythiazolo[5,4-b]pyridin-2-yl)-3-(tetrahydro-2H-pyran-4-yl)propanamide] | ≥ 3160 | 74.1 to 97
Cc1nc(S(=O)(=O)N2CCN([C@@H](CC3CCCCC3)C(=O)Nc3nccs3)C(=O)C2)cn1C [Example 48, (S)-3-cyclohexyl-2-(4-(1,2-dimethyl-1H-imidazol-4-ylsulfonyl)-2-oxopiperazin-1-yl)-N-(thiazol-2-yl)propanamide] | 794 to 1260 | 108 to 119
COc1ccc(OC)c(S(=O)(=O)N2CCN([C@@H](CC3CCCCC3)C(=O)Nc3nccs3)C(=O)C2)c1 [Example 194, (S)-3-cyclohexyl-2-(4-(2,5-dimethoxyphenylsulfonyl)-2-oxopiperazin-1-yl)N-(thiazol-2-yl)propanamide] | 794 to 1260 | 108 to 119
O=C(Nc1nccs1)[C@H](CC1CCCCC1)N1CCN(S(=O)(=O)C2CC2)CC1=O [Example 96, (S)-3-cyclohexyl-2-(4-(cyclopropylsulfonyl)-2-oxopiperazin-1-yl)-N-(thiazol-2-yl)propanamide] | 794 to 1260 | 108 to 119
CC(=O)Nc1nc(C)c(S(=O)(=O)N2CCN([C@@H](CC3CCCCC3)C(=O)Nc3nccs3)C(=O)C2)s1 [Example 197, (S)-2-(4-(2-acetamido-4-methylthiazol-5-ylsulfonyl)-2-oxopiperazin-1-yl)-3-cyclohexyl-N-(thiazol-2-yl)propanamide] | ≥ 3160 | 97.1 to 107
N#Cc1ccc(S(=O)(=O)N2CCN([C@@H](CC3CCCCC3)C(=O)Nc3nccs3)C(=O)C2)c(Cl)c1 [Example 52, (S)-2-(4-(2-chloro-4-cyanophenylsulfonyl)-2-oxopiperazin-1-yl)-3-cyclohexyl-N-(thiazol-2-yl)propanamide] | 1580 to 2510 | 74.1 to 97
O=C(Nc1nccs1)[C@H](CC1CCCCC1)N1CCN(S(=O)(=O)c2ccc(-c3nsc(Cl)n3)s2)CC1=O [Example 165, (S)-2-(4-(5-(5-chloro-1,2,4-thiadiazol-3-yl)thiophen-2-ylsulfonyl)-2-oxopiperazin-1-yl)-3-cyclohexyl-N-(thiazol-2-yl)propanamide] | 794 to 1260 | ≤ 74
Cc1ccc(S(=O)(=O)N2CCN([C@@H](CC3CCCCC3)C(=O)Nc3nccs3)C(=O)C2)cc1Cl [Example 94, (S)-2-(4-(3-chloro-4-methylphenylsulfonyl)-2-oxopiperazin-1-yl)-3-cyclohexyl-N-(thiazol-2-yl)propanamide] | 794 to 1260 | 108 to 119
O=C(Nc1nccs1)[C@H](CC1CCCCC1)N1CCN(C(=S)Nc2ccc(F)cc2)CC1=O [Example 83, (S)-3-cyclohexyl-2-(4-(4-fluorophenylcarbamothioyl)-2-oxopiperazin-1-yl)N-(thiazol-2-yl)propanamide] | ≥ 3160 | 108 to 119
O=C(Nc1nccs1)[C@H](CC1CCCCC1)N1CCN(C(=S)NCCN2CCCCC2)CC1=O [Example 121, (S)-3-cyclohexyl-2-(2-oxo-4-(2-(piperidin-1-yl)ethylcarbamothioyl)piperazin-1-yl)-N-(thiazol-2-yl)propanamide] | ≤ 631 | 97.1 to 107
CC(=O)Nc1ccc(S(=O)(=O)N2CCN([C@@H](CC3CCCCC3)C(=O)Nc3nccs3)C(=O)C2)cc1 [Example 45, (S)-2-(4-(4-acetamidophenylsulfonyl)-2-oxopiperazin-1-yl)-3-cyclohexyl-N-(thiazol-2-yl)propanamide] | ≥ 3160 | 97.1 to 107
O=C(Nc1nccs1)[C@H](CC1CCCCC1)N1CCN(S(=O)(=O)c2cccc(Cl)c2F)CC1=O [Example 188, (S)-2-(4-(3-chloro-2-fluorophenylsulfonyl)-2-oxopiperazin-1-yl)-3-cyclohexyl-N-(thiazol-2-yl)propanamide] | ≤ 631 | ≥ 119
CCn1cc(S(=O)(=O)N2CCN([C@@H](CC3CCCCC3)C(=O)Nc3nccs3)C(=O)C2)cn1 [Example 110, (S)-3-cyclohexyl-2-(4-(1-ethyl-1H-pyrazol-4-ylsulfonyl)-2-oxopiperazin-1-yl)-N-(thiazol-2-yl)propanamide] | ≥ 3160 | ≥ 119
Cc1cc(C)cc(S(=O)(=O)N2CCN([C@@H](CC3CCCCC3)C(=O)Nc3nccs3)C(=O)C2)c1 [Example 195, (S)-3-cyclohexyl-2-(4-(3,5-dimethylphenylsulfonyl)-2-oxopiperazin-1-yl)-N-(thiazol-2-yl)propanamide] | ≤ 631 | ≥ 119
O=C(Nc1nccs1)[C@H](CC1CCCCC1)N1CCN(C(=S)Nc2ccc(Cl)cc2)CC1=O [Example 125, (S)-2-(4-(4-chlorophenylcarbamothioyl)-2-oxopiperazin-1-yl)-3-cyclohexyl-N-(thiazol-2-yl)propanamide] | ≥ 3160 | 97.1 to 107
O=C(Nc1nccs1)[C@H](CC1CCCCC1)N1CCN(S(=O)(=O)c2cc3ccccc3s2)CC1=O [Example 104, (S)-2-(4-(benzo[b]thiophen-2-ylsulfonyl)-2-oxopiperazin-1-yl)-3-cyclohexyl-N-(thiazol-2-yl)propanamide] | ≤ 631 | 74.1 to 97
CS(=O)(=O)N1CCN([C@@H](CC2CCCCC2)C(=O)Nc2nccs2)C(=O)C1 [Example 1, (S)-3-cyclohexyl-2-(4-(methylsulfonyl)-2-oxopiperazin-1-yl)-N-(thiazol-2-yl)propanamide] | 1580 to 2510 | 74.1 to 97
O=C(Nc1ncc(Cl)s1)[C@H](CC1CCOCC1)N1CCN(S(=O)(=O)C2CC2)CC1=O [Example 24, (S)-N-(5-chlorothiazol-2-yl)-2-(4-(cyclopropylsulfonyl)-2-oxopiperazin-1-yl)-3-(tetrahydro-2H-pyran-4-yl)propanamide] | 794 to 1260 | ≥ 119
COc1ccc(NC(=S)N2CCN([C@@H](CC3CCCCC3)C(=O)Nc3nccs3)C(=O)C2)cc1 [Example 86, (S)-3-cyclohexyl-2-(4-(4-methoxyphenylcarbamothioyl)-2-oxopiperazin-1-yl)-N-(thiazol-2-yl)propanamide] | ≥ 3160 | 97.1 to 107
O=C(Nc1nccs1)[C@H](CC1CCCCC1)N1CCN(C(=S)Nc2cccc(C(F)(F)F)c2)CC1=O [Example 84, (S)-3-cyclohexyl-2-(2-oxo-4-(3-(trifluoromethyl)phenylcarbamothioyl)piperazin-1-yl)-N-(thiazol-2-yl)propanamide] | ≥ 3160 | 97.1 to 107
O=C(Nc1nccs1)[C@H](CC1CCCCC1)N1CCN(S(=O)(=O)Cc2cccc(Cl)c2)CC1=O [Example 63, (S)-2-(4-(3-chlorobenzylsulfonyl)-2-oxopiperazin-1-yl)-3-cyclohexyl-N-(thiazol-2-yl)propanamide] | 1580 to 2510 | 108 to 119
O=C(Nc1nccs1)[C@H](CC1CCCCC1)N1CCN(S(=O)(=O)C2CCCCC2)CC1=O [Example 227] | ≤ 631 | ≥ 119
CCOC(=O)c1nc(-c2ccc(S(=O)(=O)N3CCN([C@@H](CC4CCCCC4)C(=O)Nc4nccs4)C(=O)C3)s2)no1 [Example 167, (S)-ethyl 3-(5-(4-(3-cyclohexyl-1-oxo-1-(thiazol-2-ylamino)propan-2-yl)-3-oxopiperazin-1-ylsulfonyl)thiophen-2-yl)-1,2,4-oxadiazole-5-carboxylate] | 1580 to 2510 | ≤ 74
CC(=O)c1ccc(S(=O)(=O)N2CCN([C@@H](CC3CCCCC3)C(=O)Nc3nccs3)C(=O)C2)cc1 [Example 206] | ≥ 3160 | 74.1 to 97
O=C(Nc1nccs1)[C@H](CC1CCCCC1)N1CCN(S(=O)(=O)c2ccc3ccccc3c2)CC1=O [Example 39, (S)-3-cyclohexyl-2-(4-(naphthalen-2-ylsulfonyl)-2-oxopiperazin-1-yl)-N-(thiazol-2-yl)propanamide] | 794 to 1260 | ≤ 74
N#Cc1ccc(NC(=S)N2CCN([C@@H](CC3CCCCC3)C(=O)Nc3nccs3)C(=O)C2)cc1 [Example 126, (S)-2-(4-(4-cyanophenylcarbamothioyl)-2-oxopiperazin-1-yl)-3-cyclohexyl-N-(thiazol-2-yl)propanamide] | 794 to 1260 | 97.1 to 107
O=C(Nc1nccs1)[C@H](CC1CCCCC1)N1CCN(S(=O)(=O)c2cccc3nonc23)CC1=O [Example 176, (S)-2-(4-(benzo[c][1,2,5]oxadiazol-4-ylsulfonyl)-2-oxopiperazin-1-yl)-3-cyclohexyl-N-(thiazol-2-yl)propanamide] | ≤ 631 | ≥ 119
